Assay results published in patent EP0393104B1, “MEASUREMENT OF PGE 2 (PROSTAGLANDIN E 2) LEVELS IN PATIENTS WITH CHRONIC INFLAMMATORY BOWEL DISEASE” (priority 1987, dated 1989).

How the values were obtained:
[1] = system: PGE2; test: Equilibrium in vivo dialysis of rectum with radioimmunoassay of PGE2 (ADS study); parameters: species or system patients; conditions: mean±SD
Method: (§1) Before entry, at the two week's visit, and at the six and 12 months' visits equilibrium in vivo dialysis of faeces as well as equilibrium in vivo dialysis of rectum were done prior to endoscopy of rectum and sigmoid colon with biopsies. ADS was administered in gelatin capsules, each containing 250 mg of the powdered drug without additives.
Equilibrium in vivo dialysis of rectum was performed after insertion of a 12-cm-long dialysis bag into the emptied rectum as previously described (K. Lauritsen, L.S. Laursen, K. Bukhave, J. Rask-Madsen, "Effects of topical 5-aminosalicylic acid and prednisolone on prostaglandin E2 and leukotriene B4 levels determined by equilibrium in vivo dialysis of rectum in relapsing ulcerative colitis, Gastroenterology 1986;91:837-844). The bag was left for four hours and its contents (rectal dialysate) were analyzed for concentrations of PGE2 (rectal PGEZ).
(§2) The lower detection limits in serum and in faecal dialysates were 1.0 umol/I and 6.0 umol/l, respectively. Prostaglandin E2 was measured by the radioimmunologic method, referred to above, validated by gas chromatography-mass spectrometry. These measurements were done blindly and independently of the assessment of disease activity and clinicians were unaware of the results until the data had been completed.

[2] = system: ulcerative colitis and Crohn's colitis; test: Open one-year dose-escalation study of ADS: efficacy, tolerance and safety; type: in vivo, patients; conditions: for patients who experienced a relapse: remaining UC patients
From the text: Patients fulfilling the following entry criteria were candidates for the study: (a) proven UC or proven CC; (b) relapsing disease (i.e., a relapse within the past six months) or chronic continous disease activity (i.e. absence of remission (definition: see below) for three months or more); (c) refractory to SAZ (i.e., relapsing disease despite maintenance treatment with SAZ 2 g/day or chronic continous disease despite treatment with glucocorticoids and SAZ) or intolerant of SAZ (i.e., allergic to or otherwise intolerant of SAZ).
The study design was open with an initial dose of ADS 1 g/day (0.5 g b.i.d.), in SAZ intolerant patients. In SAZ refractory patients the initial dose was 2 g/day (1 g b.i.d.). […] In patients on concomitant corticosteroids the dose was gradually tapered and, if possible, the administration was stopped.
(§3) Aone year treatment period was planned including scheduled visits at two weeks and at two, four, six, eight, ten, and 12 months, in addition to in-between visits, if needed. Before entry and at each visit the clinical disease activity was assessed (see below) and a laboratory screening was done. This included blood haemoglobin, reticulocyte count, erythrocyte sedimentation rate, leucocyte count, leucocyte differential count, platelet count, serum concentrations of Na, K, Ca, albumin, creatinine, urea, alanine aminotransferase, lactate dehydrogenase, alkaline phosphatase, bilirubin, and plasma prothrombin, in addition to urine analysis for protein and glucose and microscopy for erythrocytes, leukocytes, and casts.
The clinical activity was based on a diary and the objective findings registered by the investigator. To minimize variation among observers each patient was examined on all study days by the same investigator. All days the week preceeding a scheduled visit the patient recorded the number of bowel movements in the diary, in addition to the presence or absence of blood, and graded abdominal pain and general well-being according to W. R. Best, J. M. Becktel, J. W. Singleton, 'Rederived values of the eight coefficients of the Crohn's Disease Activity Index (CDAI)', 1979 Gastroenterology, 77:843-6) for calculation of the Crohn's disease activity index (CDAI). […] Remission in patients with CC was defined as a CDAI <150 and no evidence of inflammation on sigmoidoscopy. […] Due to the open design of the study no further clinical or endoscopic estimations of efficacy were done.

[3] = HPLC of ADS, 5-ASA and Ac-5-ASA in faecal dialysates (equilibrium in vivo dialysis of faeces); parameters: species or system patients; conditions: for concentration: ulcerative colitis, read-out: Concentrations in faecal dialysates
Method: as §1
(§4) Equilibrium in vivo dialysis of faeces was done as previously described in detail by pooling the contents of five swallowed dialysis bags following their intestinal transit (faecal dialysate).
as §2

[4] = HPLC of ADS, 5-ASA and Ac-5-ASA in serum; type: in vivo, patients; conditions: ulcerative colitis, read-out: Concentrations in serum
Method: as §3, §2

[5] = system: ulcerative colitis; conditions: human, in vivo, po; cited from earlier work
[6] = system: PGE2; test: Equilibrium in vivo dialysis of faeces with radioimmunoassay of PGE2 (ADS study); parameters: species or system patients; conditions: mean±SD
Method: as §1, §4, §2

SMILES: O=C(O)c1cc(N=Nc2ccc(O)c(C(=O)O)c2)ccc1O [Olsalazine, disodium-azodisalicylate]
- Rectal PGE2 levels ([1]; Crohn's colitis (n=9), Month 6, Entry 4.0±5.1): 5.0±4.8 (0.4-13.0) ng/ml
- Rectal PGE2 levels ([1]; Crohn's colitis (n=9), Month 12, Entry 4.0±5.1): 3.0±5.7 (0.1-14.6) ng/ml
- Rectal PGE2 levels ([1]; Ulcerative colitis, SAZ intolerant, n=8, Month 6, Entry 8.5±15.0): 5.7±11.9 (0.15-32.6) ng/ml
- Rectal PGE2 levels ([1]; Ulcerative colitis, SAZ intolerant, n=8, Month 12, Entry 8.5±15.0): 1.6±2.0 (0.32-5.3) ng/ml
- Rectal PGE2 levels ([1]; Ulcerative colitis, SAZ refractory, n=23, Month 6, Entry 16.0±15.3, normal range <0.6, p<0.05): 8.1±12.3 (0.05-42.8) ng/ml
- Rectal PGE2 levels ([1]; Ulcerative colitis, SAZ refractory, n=23, Month 12, Entry 16.0±15.3): 13.6±15.4 (0.12-49.0) ng/ml
- withdrawals due to drug intolerance ([2]; 40 patients, ADS 1-4 g/day up to one year): No patients were withdrawn due to drug intolerance
- treatment failures ([2]; UC patients intolerant of SAZ): one of eight
- treatment failures ([2]; UC patients refractory to SAZ, of 23): 12
- slightly increased levels of alanine aminotransferase or alkaline phosphatase ([2]; in vivo): six cases
- treatment failures (CDAI <150 without sigmoidoscopic evidence of inflammation never obtained) ([2]; patients with CC): Five of the nine
- treatment failures (clinical and sigmoidoscopic remission never obtained) ([2]; patients with UC (n=31)): Thirteen patients
- patients who experienced a relapse ([2]; on 1 g/day): four
- patients who experienced a relapse ([2]; on 2 g/day): two
- patients who experienced a relapse ([2]; on 3 g/day): eight
- patients who experienced a relapse ([2]; on 4 g/day): two
- concentration ([3]; Olsalazine dose/day 1 g (n=7), mean±SD of averages in each patient): 100 ± 140 µM
- concentration ([3]; Olsalazine dose/day 2 g (n=20), mean±SD): 340 ± 480 µM
- concentration ([3]; Olsalazine dose/day 3 g (n=14), mean±SD): 400 ± 580 µM
- concentration ([3]; Olsalazine dose/day 4 g (n=18), mean±SD): 270 ± 410 µM
- patients in whom the split ratio was below 90%, at least on one occasion ([3]; of all patients): 28%
- concentration ([4]; Olsalazine dose/day 1 g (n=9), mean±SD of average in each patient): 9.2 ± 3.4 µM
- concentration ([4]; Olsalazine dose/day 2 g (n=14), mean±SD): 16 ± 6.8 µM
- concentration ([4]; Olsalazine dose/day 3 g (n=20), mean±SD): 22 ± 8.1 µM
- concentration ([4]; Olsalazine dose/day 4 g (n=20), mean±SD): 25 ± 11 µM
- loose or watery stools (major adverse effect) [5]: 10%
- Fecal PGE2 levels ([6]; Crohn's colitis (n=9), Month 6, Entry 1.76±1.94): 0.70±0.68 (0.08-1.81) ng/ml
- Fecal PGE2 levels ([6]; Crohn's colitis (n=9), Month 12, Entry 1.76±1.94): 1.23±2.06 (0.04-5.39) ng/ml
- Fecal PGE2 levels ([6]; Ulcerative colitis, SAZ intolerant, n=8, Month 6, Entry 1.09±1.18): 0.48±0.85 (0.04-2.55) ng/ml
- Fecal PGE2 levels ([6]; Ulcerative colitis, SAZ intolerant, n=8, Month 12, Entry 1.09±1.18, p<0.05): 0.16±0.05 (0.08-0.22) ng/ml
- Fecal PGE2 levels ([6]; Ulcerative colitis, SAZ refractory, n=23, Month 6, Entry 1.65±1.80, normal range <0.5, p<0.05): 0.44±1.03 (0.05-4.72) ng/ml
- Fecal PGE2 levels ([6]; Ulcerative colitis, SAZ refractory, n=23, Month 12, Entry 1.65±1.80, p<0.05): 0.77±1.09 (0.06-3.73) ng/ml
